The results in this text go back to US20180208920A1, “MOLECULAR MACHINES” (Commonwealth Scientific and Industrial Research Organisation, priority 2015, published 2018).

The test system of data set [1] is EcG3PD::CaNOX::AaE2 (TriF2). Format: biochemical, Alicyclobacillus acidophilus. The following applies: after 5 min incubation with inhibitor on ice.
The test system of a further data set is CaNOX::AaE2. The data set is classed as biochemical, Alicyclobacillus acidophilus. As to conditions: after 5 min incubation with inhibitor on ice.
The nature of data set [2]: Batch reactions converting glycerol to G3P and DHAP. Format: biochemical. How it is done: Reactions were conducted at room temperature in 1 mL total volume with 10 mM glycerol as starting substrate, between 1 and 14 nM of enzyme and 100 μM each of ATP and NAD. Samples were collected at various time points and analysed by LCMS (SIM monitoring for G3P and DHAP).
G3P and DHAP were separated using a modification of the method described in Prieto-Blanc et al., (2010). Chromatographic conditions were SIELC ObeliscN column (250 mm) with 50% mobile phase A, 50% mobile phase B for 30 minutes. Mobile phase A: 0.1% formic acid; mobile phase b: methanol with 0.1% acetic acid. Mass spectrophotometric detection was conducted using API-ES mode with an Agilent 6120 Quadroploe LCMS. Glycerol-3-phosphate was quantified by selected ion monitoring of ion 171, DHAP quantified by selected ion monitoring of ion 169, the three aldol condensation products fructose-1,6-biphosphate, “AP” and “XP” were quantified by selected ion monitoring of […].

The next data set deals with CaNOX. The data set can be described thus: Kinetics of NADH oxidase (NOX) with modified cofactor. The data set is classed as biochemical, Clostridium aminoverlaricum. The following applies: for Kcat / Km: cofactor as substrate of CaNOX. How it is done: (§1) The relative enzyme activity for the NAD-dependant glycerol-3-phosphate dehydrogenase enzymes identified for DHAP synthesis was assessed with the modified N^6-2AE-NAD. Kinetic data for EcG3PD and CaNOX was also obtained. To determine the relative activities and kinetic enzyme efficiency, modified N^6-2AE-NAD was reduced enzymatically, separated from enzymes using ultrafiltration and the amount of N^6-2AE-NADH calculated based on the absorbance A340nm.

A further data set addresses T1, EcG3PD2 (Escherichia coli, UniProt P0A6S7).
T1 construct: His tag; made in house; host or cells: E. coli BL21AI or BL21DE3*
T1 sequence (P0A6S7 1-339): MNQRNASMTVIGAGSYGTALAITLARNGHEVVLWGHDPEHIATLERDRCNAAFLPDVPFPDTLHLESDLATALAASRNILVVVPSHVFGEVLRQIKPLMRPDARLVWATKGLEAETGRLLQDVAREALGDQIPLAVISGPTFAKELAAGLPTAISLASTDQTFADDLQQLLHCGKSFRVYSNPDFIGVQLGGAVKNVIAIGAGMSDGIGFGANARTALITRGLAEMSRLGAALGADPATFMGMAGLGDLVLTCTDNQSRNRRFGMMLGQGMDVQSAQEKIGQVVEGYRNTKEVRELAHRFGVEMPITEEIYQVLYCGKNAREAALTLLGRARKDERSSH
The data set can be described thus: Kinetics of glycerol-3-phosphate dehydrogenase with modified cofactor. Format: biochemical, E. coli. The following applies: EcG3PD, full kinetic analysis. How it is done: as §1
(§2) Glycerol-3-phosphate dehydrogenase assays were conducted essentially as described by (Sakasegawa et al., 2004). Kinetics were determined by varying the concentrations of NAD/NADP or glycerol-3-phosphate, whilst maintaining the other components in excess, and kinetic determinants were calculated using Hyper (J. S. Easterby, Liverpool University). Substrate and cofactor concentrations ranged from 0.1 to 10×Km.

Substrate in data set [3]: NC(=O)c1ccc[n+]([C@@H]2O[C@H](COP(=O)([O-])OP(=O)(O)OC[C@H]3O[C@@H](n4cnc5c(N)ncnc54)[C@H](O)[C@@H]3O)[C@@H](O)[C@H]2O)c1
The data set is described as above. Format: biochemical, E. coli. The following applies: other: cofactor as substrate of EcG3PD2. How it is done:
as §1, §2

Substrate in data set [4]: NCCNc1ncnc2c1ncn2[C@H]1O[C@@H](COP(=O)(O)OP(=O)(O)OC[C@H]2O[C@@H]([n+]3cccc(C(N)=O)c3)C(O)C2O)C(O)C1O
The description is as above. Format: biochemical, E. coli. The following applies: other: cofactor as substrate of EcG3PD2. How it is done:
as §1, §2

On to `CCCCCCSCC(=O)C(F)(F)F` [1,1,1-trifluoro-3-(thiohexyl)propan-2-one], for which the residual esterase activity entry (in data set [1]; with CaNOX::AaE2) was “completely abolished” in each case.

In the case of `Nc1ncnc2c1ncn2[C@@H]1O[C@H](COP(=O)(O)OP(=O)(O)OP(=O)(O)O)[C@@H](O)[C@H]1O` [ATP, adenosine triphosphate], the “turnover of ATP per hour” value in data set [2] (BiF1 plus BiF2 batch reaction) was about 40 h⁻¹. The “turnovers of ATP per batch reaction” value is reported as about 200 in data set [2] (BiF1 plus BiF2 batch, 90 mM conversion of glycerol from 0.1 mM ATP starting concentration) and about 450 in data set [2] (TriF1 plus TriF2 batch, 4.5 mM conversion of glycerol from 0.01 mM ATP starting concentration).

As to `NC(=O)C1=CN([C@@H]2O[C@H](COP(=O)(O)OP(=O)(O)OC[C@H]3O[C@@H](n4cnc5c(N)ncnc54)[C@H](O)[C@@H]3O)[C@@H](O)[C@H]2O)C=CC1` [NADH], in the data set on CaNOX, the Kcat was 1204 ± 67.5 s⁻¹ and the Km stood at 204 ± 15.4 µM.

`NCCNc1ncnc2c1ncn2[C@H]1O[C@@H](COP(=O)(O)OP(=O)(O)OC[C@H]2O[C@@H]([n+]3cccc(C(N)=O)c3)C(O)C2O)C(O)C1O` (some centres unmarked) [N^6-2AE-NAD, N^6-(2-aminoethyl)-NAD^+]: at EcG3PD2, the “activity retained with the modified cofactor compared with unmodified NAD” value was found to be 78%.

Consider `NCCNc1ncnc2c1ncn2[C@@H]1O[C@H](COP(=O)(O)OP(=O)(O)OC[C@H]2O[C@@H](N3C=CCC(C(N)=O)=C3)[C@H](O)[C@@H]2O)[C@@H](O)[C@H]1O` [N^6-2AE-NADH], for which, in the data set with CaNOX (NOX1 (CaNOX)), the “catalytic efficiency compared to NADH as substrate” value is “reduction in the catalytic efficiency”. For the same molecule, in the data set on CaNOX, the Kcat was 343 ± 32.6 s⁻¹ and the Km amounted to 215 ± 27.2 µM.

B1: EcG3PD2 (Escherichia coli K-12) (protein)
chain: T1 sequence (P0A6S7 1-339)
notes: His tag; made in house; host or cells: E. coli BL21AI or BL21DE3*
Regarding B1, in data set [3], the Km was determined as 147.1 ± 25.4 µM, the kcat worked out at 66.7 ± 10.6 s⁻¹ and the kcat/Km was 450000 M⁻¹ s⁻¹. For the same molecule, in data set [4], the Km was 181.2 ± 37.5 µM, the kcat worked out at 63.5 ± 9.4 s⁻¹ and the kcat/Km came out at 350000 M⁻¹ s⁻¹.
